# Experimental data taken from patent publication US9480259B2, “Pyrazolopyrans having herbicidal and pharmaceutical properties” (BASF SE, priority 2012, dated 2016).
# pEC50: −log10 of the molar value.
# Target: Arabidopsis thaliana SHMT
# Assay: SHMT activity assay (ED50 SHMT), coupled with N5,N10-CH2-THF dehydrogenase, NADH at 340 nm
# Assay type: biochemical
# Conditions: Table 2, Arabidopsis thaliana SHMT enzyme assay; values given as upper bounds
# Summary of the method: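 His-tagged SHMT purified on Ni-NTA. NADH formation followed at 340 nm for 30 min; ED50 from inhibition of initial velocity.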
row,pEC50,SMILES
1,> 8.00,N#CC1=C(N)Oc2[nH]ncc2C1(c1cc(Br)cc(Br)c1)C1CCC1 (stereo not shown) [Compound 2.251]
2,> 8.00,COc1ccc(C2(C3CCC3)C(C#N)=C(N)Oc3[nH]ncc32)cc1Cl (stereo not shown) [Compound 2.253]
3,> 5.00,COc1ccc(C2(C3CCCC3)C(C#N)=C(N)Oc3[nH]ncc32)cc1Cl (stereo not shown) [Compound 2.254]
4,> 8.00,COc1ccc(C2(C3(F)CC3)C(C#N)=C(N)Oc3[nH]nc(C)c32)cc1Cl (stereo not shown) [Compound 2.260]
5,> 8.00,Cc1n[nH]c2c1C(c1cc(Cl)cc(-c3ccco3)c1)(C1CCC1)C(C#N)=C(N)O2 (stereo not shown) [Compound 2.262]
6,> 8.00,Cc1n[nH]c2c1C(c1cccc(OC(F)F)c1)(C1CCC1)C(C#N)=C(N)O2 (stereo not shown) [Compound 2.264]
7,> 8.00,Cc1n[nH]c2c1C(c1cccc(OC(F)(F)F)c1)(C1CCC1)C(C#N)=C(N)O2 (stereo not shown) [Compound 2.278]
8,> 8.00,CC(C)C1(c2cc(Br)cc(Br)c2)C(C#N)=C(N)Oc2[nH]ncc21 (stereo not shown) [Compound 2.287]
9,> 8.00,COc1c(Cl)cc(C2(C3CCC3)C(C#N)=C(N)Oc3[nH]nc(C)c32)cc1Cl (stereo not shown) [Compound 2.292]
10,> 8.00,N#CC1=C(N)Oc2[nH]ncc2C1(c1cc(Cl)cc(I)c1)C1CCC1 (stereo not shown) [Compound 2.298]
11,> 8.00,Cc1n[nH]c2c1C(c1cc(Cl)cc(I)c1)(C1CCC1)C(C#N)=C(N)O2 (stereo not shown) [Compound 2.299]
12,> 7.00,N#CC1=C(N)Oc2[nH]ncc2C1(c1cc(Br)cc(Br)c1)C1CC=CC1 (stereo not shown) [Compound 2.301]
13,> 8.00,N#CC1=C(N)Oc2[nH]ncc2C1(c1ccc(C(F)(F)F)c(C(F)(F)F)c1)C1CCC1 (stereo not shown) [Compound 2.302]
14,> 8.00,N#CC1=C(N)Oc2[nH]ncc2C1(c1cc(I)cc(I)c1)C1CCC1 (stereo not shown) [Compound 2.309]
15,> 6.00,Cc1n[nH]c2c1C(c1cccc([S+](C)[O-])c1)(C1CCC1)C(C#N)=C(N)O2 (stereo not shown) [Compound 2.312]
16,> 8.00,CC(C)C1(c2cc(Cl)cc(Br)c2)C(C#N)=C(N)Oc2[nH]ncc21 (stereo not shown) [Compound 2.317]
17,> 8.00,Cc1n[nH]c2c1C(c1cc(Cl)cc(-c3nccs3)c1)(C1CCC1)C(C#N)=C(N)O2 (stereo not shown) [Compound 2.320]
18,> 8.00,COc1ccc(C2(C(C)C)C(C#N)=C(N)Oc3[nH]ncc32)cc1Br (stereo not shown) [Compound 2.322]
19,> 8.00,Cc1n[nH]c2c1C(c1cc(Cl)cc(-c3cccnc3)c1)(C1CCC1)C(C#N)=C(N)O2 (stereo not shown) [Compound 2.324]
20,> 8.00,Cc1n[nH]c2c1C(c1cc(C#N)cc(-c3cccc(F)c3)c1)(C1CCC1)C(C#N)=C(N)O2 (stereo not shown) [Compound 2.327]
21,> 8.00,COc1c(Cl)cc(C2(C(C)C)C(C#N)=C(N)Oc3[nH]ncc32)cc1Cl (stereo not shown) [Compound 2.330]
22,> 8.00,COc1c(Cl)cc(C2(C(C)C)C(C#N)=C(N)Oc3[nH]nc(C)c32)cc1Cl (stereo not shown) [Compound 2.331]
23,> 8.00,Cc1n[nH]c2c1C(c1cc(C#N)cc(-c3ccc(Cl)cc3)c1)(C1CCC1)C(C#N)=C(N)O2 (stereo not shown) [Compound 2.333]
24,> 8.00,Cc1n[nH]c2c1C(c1cc(C#N)cc(C(F)(F)F)c1)(C(C)C)C(C#N)=C(N)O2 (stereo not shown) [Compound 2.338]

# The remaining lines, values behind:
row,SMILES,pEC50
1,Cc1n[nH]c2c1C(c1cc(Cl)cc(-c3cccc(C(F)(F)F)c3)c1)(C1CCC1)C(C#N)=C(N)O2 (stereo not shown) [Compound 2.249],> 8.00
2,Cc1n[nH]c2c1C(c1cc(Cl)cc(-c3ccc(C(F)(F)F)cc3)c1)(C1CCC1)C(C#N)=C(N)O2 (stereo not shown) [Compound 2.250],> 8.00
3,N#CC1=C(N)Oc2[nH]ncc2C1(c1cc(Cl)cc(C(F)(F)F)c1)C1CCC1 (stereo not shown) [Compound 2.252],> 8.00
4,COc1ccc(C2(C3CCC3)C(C#N)=C(N)Oc3[nH]ncc32)cc1Br (stereo not shown) [Compound 2.255],> 8.00
5,N#CC1=C(N)Oc2[nH]ncc2C1(c1cc(Cl)cc(Cl)c1)C1CCCC1 (stereo not shown) [Compound 2.256],> 5.00
6,Cc1n[nH]c2c1C(c1cc(F)cc(C#N)c1)(C1CCC1)C(C#N)=C(N)O2 (stereo not shown) [Compound 2.258],> 8.00
7,N#CC1=C(N)Oc2[nH]ncc2C1(c1cc(Br)cc(C(F)(F)F)c1)C1CCC1 (stereo not shown) [Compound 2.259],> 8.00
8,Cc1n[nH]c2c1C(c1cc(Cl)cc(-c3cccs3)c1)(C1CCC1)C(C#N)=C(N)O2 (stereo not shown) [Compound 2.263],> 8.00
9,Cc1n[nH]c2c1C(c1ccc(F)c(OC(F)(F)F)c1)(C1CCC1)C(C#N)=C(N)O2 (stereo not shown) [Compound 2.265],> 8.00
10,Cc1n[nH]c2c1C(c1cc(Cl)cc(OC(F)(F)F)c1)(C1CCC1)C(C#N)=C(N)O2 (stereo not shown) [Compound 2.266],> 8.00
11,COc1ccc(C2(C3(F)CC3)C(C#N)=C(N)Oc3[nH]nc(C)c32)cc1C(F)(F)F (stereo not shown) [Compound 2.267],> 8.00
12,Cc1n[nH]c2c1C(c1ccc(N3CCCC3)c(Cl)c1)(C1CCC1)C(C#N)=C(N)O2 (stereo not shown) [Compound 2.268],> 8.00
13,Cc1n[nH]c2c1C(c1ccc(F)c(C#N)c1)(C1CCC1)C(C#N)=C(N)O2 (stereo not shown) [Compound 2.269],> 8.00
14,Cc1n[nH]c2c1C(c1cc(Cl)cc(Cl)c1)(C1CC1(F)F)C(C#N)=C(N)O2 (stereo not shown) [Compound 2.270],> 8.00
15,Cc1n[nH]c2c1C(c1cc(N3CCOCC3)cc(C(F)(F)F)c1)(C1CCC1)C(C#N)=C(N)O2 (stereo not shown) [Compound 2.271],> 8.00
16,Cc1n[nH]c2c1C(c1ccc(C(F)(F)F)c(C(F)(F)F)c1)(C1CCC1)C(C#N)=C(N)O2 (stereo not shown) [Compound 2.272],> 8.00
17,Cc1n[nH]c2c1C(c1cc(Cl)c(Cl)c(C(F)(F)F)c1)(C1CCC1)C(C#N)=C(N)O2 (stereo not shown) [Compound 2.273],> 8.00
18,N#CC1=C(N)Oc2[nH]ncc2C1(c1cc(N2CCOCC2)cc(C(F)(F)F)c1)C1CCC1 (stereo not shown) [Compound 2.274],> 8.00
19,Cc1n[nH]c2c1C(c1cc(Cl)cc(-c3ccsc3)c1)(C1CC1)C(C#N)=C(N)O2 (stereo not shown) [Compound 2.275],> 8.00
20,Cc1n[nH]c2c1C(c1cc(Cl)cc(-c3cccs3)c1)(C1CC1)C(C#N)=C(N)O2 (stereo not shown) [Compound 2.276],> 6.00
21,Cc1n[nH]c2c1C(c1cccc(C(F)F)c1)(C1CCC1)C(C#N)=C(N)O2 (stereo not shown) [Compound 2.277],> 8.00
22,Cc1n[nH]c2c1C(c1cc(Cl)cc(C(N)=O)c1)(C1CCC1)C(C#N)=C(N)O2 (stereo not shown) [Compound 2.284],> 8.00
23,N#CC1=C(N)Oc2[nH]ncc2C1(c1cc(C#N)cc(C#N)c1)C1CCC1 (stereo not shown) [Compound 2.286],> 8.00
24,N#CC1=C(N)Oc2[nH]ncc2C1(c1cc(Cl)cc(Cl)c1)C1(F)CCC1 (stereo not shown) [Compound 2.288],> 7.00
25,Cc1n[nH]c2c1C(c1ccc(Cl)c(OC(F)(F)F)c1)(C1CCC1)C(C#N)=C(N)O2 (stereo not shown) [Compound 2.289],> 8.00
26,N#CC1=C(N)Oc2[nH]ncc2C1(c1ccc(Cl)c(OC(F)(F)F)c1)C1CCC1 (stereo not shown) [Compound 2.290],> 7.00

row,SMILES,pEC50
1,Cc1n[nH]c2c1C(c1cc(Cl)cc(Cl)c1)(C1CC=CC1)C(C#N)=C(N)O2 (stereo not shown) [Compound 2.291],> 8.00
2,COc1c(Cl)cc(C2(C3CCC3)C(C#N)=C(N)Oc3[nH]ncc32)cc1Cl (stereo not shown) [Compound 2.293],> 8.00
3,N#CC1=C(N)Oc2[nH]ncc2C1(c1cccc(SC(F)(F)F)c1)C1CCC1 (stereo not shown) [Compound 2.297],> 7.00
4,Cc1n[nH]c2c1C(c1cc(Br)cc(Br)c1)(C1CC=CC1)C(C#N)=C(N)O2 (stereo not shown) [Compound 2.300],> 8.00
5,Cc1n[nH]c2c1C(c1ccc(OC(F)(F)F)c(Cl)c1)(C1CCC1)C(C#N)=C(N)O2 (stereo not shown) [Compound 2.303],> 8.00
6,Cc1n[nH]c2c1C(c1cccc(C(C)(F)F)c1)(C1CCC1)C(C#N)=C(N)O2 (stereo not shown) [Compound 2.305],> 7.00
7,Cc1n[nH]c2c1C(c1cc(Br)cc(OC(F)(F)F)c1)(C1CCC1)C(C#N)=C(N)O2 (stereo not shown) [Compound 2.307],> 8.00
8,Cc1n[nH]c2c1C(c1cc(I)cc(I)c1)(C1CCC1)C(C#N)=C(N)O2 (stereo not shown) [Compound 2.308],> 8.00
9,CSc1cccc(C2(C3CCC3)C(C#N)=C(N)Oc3[nH]nc(C)c32)c1 (stereo not shown) [Compound 2.310],> 8.00
10,CSc1cccc(C2(C3CCC3)C(C#N)=C(N)Oc3[nH]ncc32)c1 (stereo not shown) [Compound 2.311],> 6.00
11,Cc1n[nH]c2c1C(c1cccc(S(C)(=O)=O)c1)(C1CCC1)C(C#N)=C(N)O2 (stereo not shown) [Compound 2.313],> 6.00
12,C#CCCC1(c2cc(Cl)cc(Cl)c2)C(C#N)=C(N)Oc2[nH]nc(C)c21 (stereo not shown) [Compound 2.314],> 7.00
13,CC(C)C1(c2cc(Cl)cc(C(F)(F)F)c2)C(C#N)=C(N)Oc2[nH]ncc21 (stereo not shown) [Compound 2.315],> 8.00
14,Cc1n[nH]c2c1C(c1cc(Cl)cc(C(F)(F)F)c1)(C(C)C)C(C#N)=C(N)O2 (stereo not shown) [Compound 2.316],> 8.00
15,Cc1n[nH]c2c1C(c1cc(Cl)cc(-c3ccccn3)c1)(C1CCC1)C(C#N)=C(N)O2 (stereo not shown) [Compound 2.318],> 8.00
16,N#CC1=C(N)Oc2[nH]ncc2C1(c1cc(Cl)cc(-c2nccs2)c1)C1CCC1 (stereo not shown) [Compound 2.319],> 8.00
17,N#CC1=C(N)Oc2[nH]ncc2C1(c1cc(C#N)cc(C(F)(F)F)c1)C1CCC1 (stereo not shown) [Compound 2.321],> 8.00
18,Cc1n[nH]c2c1C(c1cc(C#N)cc(-c3ccccc3)c1)(C1CCC1)C(C#N)=C(N)O2 (stereo not shown) [Compound 2.323],> 7.00
19,Cc1n[nH]c2c1C(c1cc(C#N)cc(-c3cccc(C(F)(F)F)c3)c1)(C1CCC1)C(C#N)=C(N)O2 (stereo not shown) [Compound 2.325],> 8.00
20,Cc1n[nH]c2c1C(c1cc(C#N)cc(-c3ccc(C(F)(F)F)cc3)c1)(C1CCC1)C(C#N)=C(N)O2 (stereo not shown) [Compound 2.326],> 8.00
21,Cc1n[nH]c2c1C(c1cc(C#N)cc(-c3ccc(F)cc3)c1)(C1CCC1)C(C#N)=C(N)O2 (stereo not shown) [Compound 2.328],> 8.00
22,Cc1n[nH]c2c1C(c1cc(C#N)cc(-c3ccsc3)c1)(C1CCC1)C(C#N)=C(N)O2 (stereo not shown) [Compound 2.329],> 8.00
23,Cc1n[nH]c2c1C(c1cc(C#N)cc(-c3cccc(Cl)c3)c1)(C1CCC1)C(C#N)=C(N)O2 (stereo not shown) [Compound 2.332],> 8.00
24,Cc1n[nH]c2c1C(c1cc(Br)cc(C#N)c1)(C(C)C)C(C#N)=C(N)O2 (stereo not shown) [Compound 2.334],> 8.00
25,CC(C)C1(c2cc(C#N)cc(C#N)c2)C(C#N)=C(N)Oc2[nH]ncc21 (stereo not shown) [Compound 2.336],> 8.00
26,CC(C)C1(c2cc(C#N)cc(C(F)(F)F)c2)C(C#N)=C(N)Oc2[nH]ncc21 (stereo not shown) [Compound 2.337],> 8.00
